As usually defined, the IC50 is the midpoint of a concentration-inhibition curve.

We go through four molecules from PMC5407626 (PLoS ONE, 2017).

The structures appear in SMILES notation. “And” between values parts separate entries of the source, which are not always exact repeats. Equal values may be shown once. Read-outs that look alike come from different tables or passages of the source.

One assay addresses T1, recombinant mouse BCO1 (Mus musculus, UniProt Q9JJS6).
T1 construct: His-tag; made in house; host or cells: E. coli
T1 sequence (Q9JJS6 1-566): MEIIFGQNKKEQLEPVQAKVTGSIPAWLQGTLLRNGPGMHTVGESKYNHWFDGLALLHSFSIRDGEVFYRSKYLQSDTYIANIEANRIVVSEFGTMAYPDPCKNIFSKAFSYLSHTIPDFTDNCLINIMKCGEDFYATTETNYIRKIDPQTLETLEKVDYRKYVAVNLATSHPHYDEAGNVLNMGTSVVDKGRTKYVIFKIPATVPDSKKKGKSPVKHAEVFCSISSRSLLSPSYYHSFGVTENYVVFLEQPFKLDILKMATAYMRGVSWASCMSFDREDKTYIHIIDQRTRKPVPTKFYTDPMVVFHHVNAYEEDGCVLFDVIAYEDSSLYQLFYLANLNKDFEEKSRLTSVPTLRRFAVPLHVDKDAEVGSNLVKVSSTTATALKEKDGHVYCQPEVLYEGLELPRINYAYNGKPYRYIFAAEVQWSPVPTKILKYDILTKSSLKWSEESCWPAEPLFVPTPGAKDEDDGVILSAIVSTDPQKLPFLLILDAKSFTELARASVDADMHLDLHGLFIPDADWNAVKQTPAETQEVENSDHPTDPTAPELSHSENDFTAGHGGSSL
Put plainly: In vitro inhibition of recombinant mouse BCO1 activity. The format is biochemical. The source says:
Recombinant His-tag mouse BCO1 was produced in E.coli and purified using Talon CellThru (Clontech Labs, Inc., Mountain View, CA) resin as described previously. β-carotene was delivered in 1% octylthioglucoside. […] All other inhibitors were delivered in ethanol. […] The final concentration of ethanol in all samples was 1%. […] Data plotted as means±standard deviation; n = 3; […] Analysis was done in C57BL/6 wt (3 animals) and Bco1^-/- mice (13 animals).

Another assay concerns SCD1. Put plainly: SCD1 protein expression in ARPE-19 cells (Western blot densitometry). Type of assay: cell-based, human. The following applies: 10 μM. As for the experimental part:
Compounds were dissolved in dimethyl sulfoxide (DMSO) and then added to the cell culture medium. Cells designated as control received an equal amount of dimethyl sulfoxide. After 16 h, cells were incubated with 50 μM palmitic acid triply deuterated (D3) on the methyl group (Cambridge Isotope Laboratories, Tewksbury, MA) for an additional 5 h before harvesting.
Samples were resuspended in 20 μl 4X reducing NuPAGE LDS sample buffer (Invitrogen). For western blot analysis, equal amounts of total protein (50 μg) from cell extracts were subjected to SDS-polyacrylamide gel electrophoresis using 4–12% NUPAGE Bis-Tris gels and then transferred to a nitrocellulose membrane using iBlot® Dry Blotting System (Invitrogen, Carlsbad, CA). After blocking in 5% non-fat milk in Tris-buffered saline (TBS) containing 0.01% Tween 20 for 1 h, the membranes were incubated overnight at 4°C with mouse monoclonal anti-SCD1 antibody (1:200; Kamiya Biomedical Company). Peroxidase-conjugated goat anti-mouse IgG antibody was used as secondary antibody. Immunocomplexes were visualized by a chemiluminescence method using the ECL Prime western blotting Detection Kit (GE Healthcare Life Sciences). The blots were then stripped and reprobed with mouse monoclonal anti-α-tubulin antibody.
Cell lysates were analyzed by Western blotting using mouse monoclonal antibody against SCD1 (upper panel) in comparison with immunoreactivity to α-tubulin which was employed as a loading control (lower panel) and densitometry for each lane was performed and analyzed by ImageJ to provide the SCD1/α-tubulin ratio for each lane. […] Free fatty acids present in lipid extracts were analyzed by LC/MS and SCD1 activity, measured by the conversion of methyl-D3 palmitic acid to methyl-D3 palmitoleic acid, was determined. […] Lipids were extracted from two 100 mm Petri dishes and combined for mass spectrometry analysis. Data plotted as means ± standard deviation; n = 3. […] They are given here as printed results in cells, but it is uncertain whether they fall under the exclusion for gels and blots. / Panel A: the Control lane (1.00) is left out because it is not a substance.

In the next assay the target is T2, DES1 (Homo sapiens, UniProt O15121).
T2 construct: endogenous in cells; host or cells: ARPE-19
T2 sequence (O15121 1-323): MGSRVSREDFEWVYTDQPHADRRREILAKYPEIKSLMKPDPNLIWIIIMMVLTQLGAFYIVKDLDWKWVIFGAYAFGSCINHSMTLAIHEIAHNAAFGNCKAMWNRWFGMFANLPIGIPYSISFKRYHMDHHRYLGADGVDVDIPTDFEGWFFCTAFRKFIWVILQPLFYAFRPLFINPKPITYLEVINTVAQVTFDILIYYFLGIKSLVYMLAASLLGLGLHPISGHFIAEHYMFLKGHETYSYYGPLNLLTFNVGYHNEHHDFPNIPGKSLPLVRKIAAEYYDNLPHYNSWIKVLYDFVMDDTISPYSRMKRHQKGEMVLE
Put plainly: DES1 activity in ARPE-19 cells (dihydroceramide/ceramide ratio, LC/MS). The following applies: 10 μM, 24 h; for MEAN RATIO (DH / C) C16 / MEAN RATIO C18 DHCER/CER: mean of 3; for MEAN RATIO (DH / C) C16: DMSO 0.08; for MEAN RATIO C18 DHCER/CER: DMSO 0.289; for increase in dihydroceramide/ceramide ratio, C18 ceramide: compared to DMSO control. The format is cell-based. More on the design: DHCER (C18) / CER (C18) / DHCER (C16) / CER (C16): unit not given here. The method, then: ARPE-19 cells were seeded onto tissue culture plates at a density of 2x10^5 cells/ml in complete medium and allowed to grow overnight. Cells were then treated with retinoids (10 μM) or vehicle (control) for 24 hours in a 37°C, 5% CO2 incubator at which time cells were harvested and total lipids were extracted into methyl-tert-butyl ether (MTBE) using the method of Matyash et al.. Extracted lipids normalized to total protein as described were subjected to liquid chromatography mass spectrometry (LC/MS) to determine the sphingolipid content in treated ARPE-19 cells. LC/MS analysis was performed using a Waters 2695 LC system coupled to an AB Sciex API2000 triple quadrupole mass spectrometer. […] The mass spectral analysis of the sphingolipid species was performed using electrospray ionization in the positive ion mode with multiple reaction monitoring (MRM). The following compound-specific transitions for precursor and characteristic product ions were used: 538 → 264 for C16 Ceramide (Cer); 540 → 266 for C16 dihydroceramide (DHCer); 566 →264 for C18 Cer; and 568 → 266 for C18 DHCer. Data was acquired and analyzed using Analyst software v 1.5 (AB Sciex).
The ratio of substrate to product for C16 and C18 ceramides (dihydroceramide/ceramide) in the presence of DMSO or inhibitors was determined by LC/MS.
Lipids were extracted from one 100 mm Petri dish for each biological replicate and subjected to mass spectrometry analysis. Data plotted as means±standard deviation; n = 3.

On to `COc1ccc(NC(=O)/C=C(C)/C=C/C=C(C)/C=C/C2=C(C)CCCC2(C)C)cc1` [MPR, N-[4-methoxyphenyl]retinamide], for which, on recombinant mouse BCO1 (20 μM β-carotene, enzyme preincubated with inhibitor 10 min at 4°C, read-out: IC50 BCO1), the IC50 came out at 5 µM. In the assay with SCD1, the “effect on SCD1 expression” value is listed as “do not affect”. On DES1, the “effect on DES1 activity / substrate accumulation” value is on record as “do not lead to overaccumulation of substrate”; the “MEAN RATIO (DH / C) C16” value amounted to 0.08; the “MEAN RATIO C18 DHCER/CER” value was 0.338 and 0.3375. In addition, at DES1 (single samples), the “CER (C16)” value was 20.40 and 20.30 and 18.55; the “CER (C18)” value is 14.65 and 15.00 and 13.65; the “Ceramide Content, C16 CER” value is 20.40 ng and 20.30 ng and 18.55 ng; the “Ceramide Content, C18 CER” value was 14.65 ng and 15.00 ng and 13.65 ng. At DES1 (single samples), the “Ceramide Content, C18 DHCER” value is 5.30 ng and 4.97 ng and 4.35 ng; the “DHCER (C18)” value was 5.30 and 4.97; the “Mass Injected, C16 CER” value is 4.08 ng and 4.06 ng and 3.71 ng; the “Mass Injected, C18 CER” value is 2.93 ng and 3.00 ng and 2.73 ng. For the same molecule, on DES1 (single samples), the “Mass Injected, C18 DHCER” value is 1.06 ng and 0.99 ng and 0.87 ng; the “RATIO C18 DHCER/CER” value is 0.362 and 0.331 and 0.319.

With `CC1=C(/C=C/C(C)=C/C=C/C(C)=C/C(=O)Nc2ccc(O)cc2)C(C)(C)CCC1` [fenretinide, N-[4-hydroxyphenyl]retinamide], in the assay with SCD1, the “effect on SCD1 expression” value was “inhibitory effect on SCD1 expression”. Further, the “effect on DES1 activity / substrate accumulation” value on DES1 is “inhibit DES1 activity”. At DES1 (single samples, listed as 4HPR), the “CER (C16)” value was 17.20 and 18.50 and 17.10; the “CER (C18)” value was 12.80 and 11.80 and 11.95; the “Ceramide Content, C16 CER” value was 17.20 ng and 18.50 ng and 17.10 ng; the “Ceramide Content, C16 DHCER” value was 6.15 ng and 4.01 ng and 5.75 ng. Besides, at DES1 (single samples, listed as 4HPR), the “Ceramide Content, C18 CER” value was 12.80 ng and 11.80 ng and 11.95 ng; the “Ceramide Content, C18 DHCER” value was 9.30 ng and 7.50 ng and 7.25 ng; the “DHCER (C16)” value was 5.75 and 6.15 and 4.01; the “DHCER (C18)” value is 9.30 and 7.50 and 7.25. In addition, on DES1 (single samples, listed as 4HPR), the “Mass Injected, C16 CER” value is 3.44 ng and 3.70 ng and 3.42 ng; the “Mass Injected, C16 DHCER” value is 1.230 ng and 0.801 ng and 1.150 ng; the “Mass Injected, C18 CER” value was 2.56 ng and 2.36 ng and 2.39 ng; the “Mass Injected, C18 DHCER” value is 1.86 ng and 1.50 ng and 1.45 ng.

As to `O=C(O)c1ccccc1NC(=O)N1CCC(c2ccccc2C(F)(F)F)CC1` [A1120], at recombinant mouse BCO1 (inhibitor 0–200 μM), the “effect on BCO1 activity” value is “does not affect BCO1 activity”. For the same molecule, the “effect on SCD1 expression” value with SCD1 is “do not affect”. At DES1, the “effect on DES1 activity / substrate accumulation” value is on record as “do not lead to overaccumulation of substrate”; the “increase in dihydroceramide/ceramide ratio, C18 ceramide” value is recorded as ~ 2 fold; the “MEAN RATIO (DH / C) C16” value turned out to be 0.07; the “MEAN RATIO C18 DHCER/CER” value was 0.153 and 0.1528. Also, at DES1 (single samples), the “CER (C16)” value is 18.30 and 24.15 and 18.55; the “CER (C18)” value was 11.60 and 16.65 and 11.05; the “Ceramide Content, C16 CER” value is 18.30 ng and 24.15 ng and 18.55 ng; the “Ceramide Content, C18 CER” value was 11.60 ng and 16.65 ng and 11.05 ng. At DES1 (single samples), the “Mass Injected, C16 CER” value is 3.66 ng and 4.83 ng and 3.71 ng; the “Mass Injected, C18 CER” value is 2.32 ng and 3.33 ng and 2.21 ng; the “RATIO C18 DHCER/CER” value was 0.136 and 0.202 and 0.120.

For `CC1=C(/C=C/C(C)=C/C=C/C(C)=C/C(=O)Nc2ccc(O)cc2)C(C)(C)CCC1=O` [3-keto-HPR, 4-oxo-N-(4-hydroxyphenyl)retinamide], the IC50 on recombinant mouse BCO1 stood at 4 µM. Also, in the assay on SCD1, the “effect on SCD1 expression” value is listed as “more efficiently inhibits SCD1 expression”. Also, on DES1, the “effect on DES1 activity / substrate accumulation” value is “inhibit DES1 activity”; the “increase in dihydroceramide/ceramide ratio, C18 ceramide” value is reported as ~ 3 fold; the “MEAN RATIO (DH / C) C16” value stood at 0.66. Besides, on DES1 (listed as 3-KETO-HPR), the “MEAN RATIO C18 DHCER/CER” value is listed as 0.7062. In addition, the “MEAN RATIO C18 DHCER/CER” value on DES1 (listed as KETO) is 0.706. For the same molecule, at DES1 (single samples), the “CER (C16)” value is 25.15 and 24.70 and 25.05; the “CER (C18)” value is 14.35 and 14.50 and 14.55; the “Ceramide Content, C16 CER” value is 25.15 ng and 24.70 ng and 25.05 ng; the “Ceramide Content, C16 DHCER” value is 19.55 ng and 15.70 ng and 14.55 ng. In addition, on DES1 (single samples), the “Ceramide Content, C18 CER” value was 14.35 ng and 14.50 ng and 14.55 ng; the “Ceramide Content, C18 DHCER” value is 9.70 ng and 11.25 ng; the “DHCER (C16)” value was 19.55 and 15.70 and 14.55; the “DHCER (C18)” value was 9.70 and 11.25. On DES1 (single samples), the “Mass Injected, C16 CER” value is 5.03 ng and 4.94 ng and 5.01 ng; the “Mass Injected, C16 DHCER” value was 3.910 ng and 3.140 ng and 2.910 ng; the “Mass Injected, C18 CER” value was 2.87 ng and 2.90 ng and 2.91 ng; the “Mass Injected, C18 DHCER” value is 1.94 ng and 2.25 ng. Also, at DES1 (single samples), the “RATIO (DH / C) C16” value is 0.78 and 0.64 and 0.58; the “RATIO C18 DHCER/CER” value is 0.676 and 0.776 and 0.667.
